{"source": "ChEMBL document CHEMBL3400119", "about": "“Triazole-containing N-acyl homoserine lactones targeting the quorum sensing system in Pseudomonas aeruginosa” (Bioorg Med Chem, 2015)", "key": {"Pseudomonas aeruginosa": {"system": "Pseudomonas aeruginosa", "assay": "(§1) Antagonist activity at rhlA in Pseudomonas aeruginosa harboring rhlA-gfp gene assessed as inhibition of […]-induced quorum sensing by green fluorescence protein reporter assay"}, "[1]": {"assay": "Antagonist activity at luxI in Escherichia coli harboring luxI-gfp gene assessed as inhibition of 3-oxo-C6-HSL-induced quorum sensing by green fluorescence protein reporter assay"}, "[2]": {"assay": "Agonist activity at lasB in Escherichia coli harboring lasB-gfp gene by green fluorescence protein reporter assay"}, "[3]": {"target": "Elastase (Pseudomonas aeruginosa (strain ATCC 15692 / PAO1 / 1C / PRS 101 / LMG12228)) (UniProt P14756)", "sequence (P14756 198-498 limits assumed)": "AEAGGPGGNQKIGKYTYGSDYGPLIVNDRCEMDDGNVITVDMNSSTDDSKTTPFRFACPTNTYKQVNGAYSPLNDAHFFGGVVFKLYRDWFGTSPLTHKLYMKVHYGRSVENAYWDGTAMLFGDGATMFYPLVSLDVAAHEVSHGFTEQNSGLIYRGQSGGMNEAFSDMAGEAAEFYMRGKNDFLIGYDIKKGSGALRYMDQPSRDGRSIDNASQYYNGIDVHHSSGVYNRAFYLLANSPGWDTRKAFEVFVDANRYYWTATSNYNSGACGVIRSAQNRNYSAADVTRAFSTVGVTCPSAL", "assay": "Antagonist activity at lasB in Pseudomonas aeruginosa harboring lasB-gfp gene assessed as inhibition of […]-induced quorum sensing by green fluorescence protein reporter assay"}, "[4]": {"assay": "as §1"}}, "note": "Active and inactive are the calls of the source. The rule behind the calls is not given here.", "data": [{"molecule": "[N-]=[N+]=Nc1ccc(C(=O)N[C@H]2CCOC2=O)cc1", "values": [{"measurement": "inhibition", "setting": "Pseudomonas aeruginosa", "result": "inactive"}, {"measurement": "IC50", "setting": "[1]", "result": 244, "unit": "µM"}]}, {"molecule": "O=Cc1cccc(-n2cc(CCC(=O)N[C@H]3CCOC3=O)nn2)c1", "values": [{"measurement": "EC50", "setting": "[2]", "result": 71, "unit": "µM"}, {"measurement": "inhibition", "setting": "Pseudomonas aeruginosa", "result": "inactive"}, {"measurement": "IC50", "setting": "[1]", "result": 5, "unit": "µM"}]}, {"molecule": "[N-]=[N+]=Nc1cccc(C(=O)N[C@H]2CCOC2=O)c1", "values": [{"measurement": "inhibition", "setting": "Pseudomonas aeruginosa", "result": "inactive"}, {"measurement": "inhibition", "setting": "[3]", "result": "inactive"}, {"measurement": "IC50", "setting": "[1]", "result": 223, "unit": "µM"}]}, {"molecule": "O=C(Cn1cc(C2CC2)nn1)N[C@H]1CCOC1=O", "values": [{"measurement": "IC50", "setting": "[4]", "result": 799, "unit": "µM"}, {"measurement": "IC50", "setting": "[1]", "result": 88, "unit": "µM"}]}, {"molecule": "O=C(Cn1cc(CSc2ccccc2)nn1)N[C@H]1CCOC1=O", "values": [{"measurement": "EC50", "setting": "[2]", "result": 2, "unit": "µM"}, {"measurement": "inhibition", "setting": "Pseudomonas aeruginosa", "result": "inactive"}, {"measurement": "IC50", "setting": "[1]", "result": 602, "unit": "µM"}]}, {"molecule": "O=C(Cn1cc(C2CCCCC2)nn1)N[C@H]1CCOC1=O", "values": [{"measurement": "EC50", "setting": "[2]", "result": 44, "unit": "µM"}, {"measurement": "inhibition", "setting": "Pseudomonas aeruginosa", "result": "inactive"}, {"measurement": "IC50", "setting": "[1]", "result": 342, "unit": "µM"}]}, {"molecule": "CCCc1cn(CC(=O)N[C@H]2CCOC2=O)nn1", "values": [{"measurement": "IC50", "setting": "[4]", "result": 927, "unit": "µM"}, {"measurement": "IC50", "setting": "[1]", "result": 71, "unit": "µM"}]}, {"molecule": "CCCCc1cn(CC(=O)N[C@H]2CCOC2=O)nn1", "values": [{"measurement": "EC50", "setting": "[2]", "result": 57, "unit": "µM"}, {"measurement": "inhibition", "setting": "Pseudomonas aeruginosa", "result": "inactive"}, {"measurement": "inhibition", "setting": "[3]", "result": "inactive"}, {"measurement": "IC50", "setting": "[1]", "result": 751, "unit": "µM"}]}, {"molecule": "O=C(Cn1cc(C2CCCC2)nn1)N[C@H]1CCOC1=O", "values": [{"measurement": "EC50", "setting": "[2]", "result": 3, "unit": "µM"}, {"measurement": "IC50", "setting": "[4]", "result": 898, "unit": "µM"}, {"measurement": "IC50", "setting": "[1]", "result": 50, "unit": "µM"}]}, {"molecule": "O=C(Cn1cc(CC2CCCCC2)nn1)N[C@H]1CCOC1=O", "values": [{"measurement": "EC50", "setting": "[2]", "result": 8, "unit": "µM"}]}, {"molecule": "CCCCCc1cn(CC(=O)N[C@H]2CCOC2=O)nn1", "values": [{"measurement": "EC50", "setting": "[2]", "result": 1, "unit": "µM"}]}, {"molecule": "O=C(Cn1cc(-c2ccsc2)nn1)N[C@H]1CCOC1=O", "values": [{"measurement": "IC50", "setting": "[4]", "result": 1030, "unit": "µM"}, {"measurement": "IC50", "setting": "[1]", "result": 55, "unit": "µM"}]}, {"molecule": "Nc1ccc(-n2cc(-c3ccc(C(=O)N[C@H]4CCOC4=O)cc3)nn2)cc1", "values": [{"measurement": "inhibition", "setting": "Pseudomonas aeruginosa", "result": "inactive"}, {"measurement": "inhibition", "setting": "[3]", "result": "inactive"}, {"measurement": "IC50", "setting": "[1]", "result": 95, "unit": "µM"}]}, {"molecule": "Nc1cccc(-n2cc(CCC(=O)N[C@H]3CCOC3=O)nn2)c1", "values": [{"measurement": "EC50", "setting": "[2]", "result": 2, "unit": "µM"}]}, {"molecule": "CCCCCCc1cn(CC(=O)N[C@H]2CCOC2=O)nn1", "values": [{"measurement": "EC50", "setting": "[2]", "result": 12, "unit": "µM"}, {"measurement": "inhibition", "setting": "Pseudomonas aeruginosa", "result": "inactive"}, {"measurement": "IC50", "setting": "[1]", "result": 578, "unit": "µM"}]}, {"molecule": "O=C(Cn1cc(-c2ccccc2)nn1)N[C@H]1CCOC1=O", "values": [{"measurement": "inhibition", "setting": "Pseudomonas aeruginosa", "result": "inactive"}, {"measurement": "inhibition", "setting": "[3]", "result": "inactive"}, {"measurement": "IC50", "setting": "[1]", "result": 192, "unit": "µM"}]}]}
